# Calls of active or inactive are those of the source. No cut-off for these calls is given here.
# Assays:
# NCI-H1975 [1] = assay: Inhibition of colony formation in human NCI-H1975 cells at 5 to 10 nM by crystal violet staining based analysis; format: functional, cell-based; settings: dose 5-10 nM
# [2] = target: Epidermal growth factor receptor (Homo sapiens, UniProt P00533, L858R/T790M); assay: Inhibition of EGFR T790M/L858R mutant (unknown origin)
# [3] = Cytotoxicity against human HK-2 cells; format: toxicity, cell-based
# BaF3 [4] = assay: Induction of cell death in inner region of cell spheres of mouse BaF3 cells harboring EGFR L858R/T790M/C797S mutant at 10 nM by Calcein AM/PI staining based analysis; format: functional
# NCI-H1975 [5] = assay: Induction of apoptosis in human NCI-H1975 cells assessed as late apoptotic cells at 10 nM incubated for 24 hrs by Annexin V-FITC/PI staining based flow cytometry (reference value: 3.55 %); format: functional
# [6] = Toxicity in nude mouse allografted with mouse BaF3 cells assessed as damage in liver at 50 mg/kg, po for 7 days by H and E staining based analysis; format: organism-based; settings: in vivo, 168 h, time 7 day
# BaF3 [7] = assay: Inhibition of cell invasion in mouse BaF3 cells harboring EGFR L858R/T790M/C797S mutant by transwell assay; format: functional, cell-based
# BaF3 [8] = assay: Induction of apoptosis in mouse BaF3 cells harboring EGFR L858R/T790M/C797S mutant assessed as late apoptotic cells at 10 nM incubated for 24 hrs by Annexin V-FITC/PI staining based flow cytometry (reference value: 0.02 %); format: functional
# NCI-H1975 [9] = assay: Antitumor activity against human NCI-H1975 cells xenografted in nude mouse at 50 mg/kg, po measured for 7 days relative to control; format: functional; settings: NCI-H1975, 168 h, time 7 day, read-out: TGI
# NCI-H1975 [10] = assay: Induction of apoptosis in human NCI-H1975 cells assessed as necrotic cells at 10 nM incubated for 24 hrs by Annexin V-FITC/PI staining based flow cytometry (reference value: 2.89 %); format: functional
# BaF3 [11] = assay: Inhibition of colony formation in mouse BaF3 cells harboring EGFR L858R/T790M/C797S mutant at 5 to 10 nM by crystal violet staining based analysis; format: functional, cell-based; settings: dose 5-10 nM
# NCI-H1975 [12] = assay: Inhibition of cell invasion in human NCI-H1975 cells by transwell assay; format: functional, cell-based
# BaF3 [13] = assay: Inhibition of EGFR L858R/T790M/C797S mutant in mouse BaF3 cells assessed as reduction in AKT phosphorylation incubated for 24 hrs by Western blot analysis; format: cell-based; settings: dose <= 100.0 nM
# BaF3 [14] = assay: Inhibition of EGFR L858R/T790M/C797S mutant in mouse BaF3 cells assessed as reduction in ERK phosphorylation incubated for 24 hrs by Western blot analysis; format: cell-based; settings: dose <= 100.0 nM
# BaF3 [15] = assay: Inhibition of fibronectin activation in mouse BaF3 cells allografted in nude mouse at 50 mg/kg, po for 7 days; format: functional, organism-based; settings: time 7.0 day
# BaF3 [16] = assay: Induction of cell death in outer layer of cell spheres of mouse BaF3 cells harboring EGFR L858R/T790M/C797S mutant at 1 nM by Calcein AM/PI staining based analysis; format: functional
# [17] = Toxicity in nude mouse allografted with mouse BaF3 cells assessed as lesion in heart at 50 mg/kg, po for 7 days by H and E staining based analysis; format: organism-based; settings: in vivo, 168 h, time 7 day
# [18] = Toxicity in nude mouse allografted with mouse BaF3 cells assessed as animal abnormality at 50 mg/kg, po measured for 7 days; format: organism-based; settings: in vivo, 168 h, time 7 day
# [19] = Cytotoxicity against human HaCaT cells; format: toxicity, cell-based
# [20] = target: T1, Epidermal growth factor receptor (Homo sapiens, UniProt P00533); assay: Inhibition of EGFR in human NCI-H1975 cells assessed as reduction in AKT phosphorylation incubated for 24 hrs by Western blot analysis; format: cell-based; settings: dose <= 50.0 nM
# [21] = Toxicity in nude mouse allografted with mouse BaF3 cells assessed as lesion in spleen at 50 mg/kg, po for 7 days by H and E staining based analysis; format: organism-based; settings: in vivo, 168 h, time 7 day
# [22] = Cytotoxicity against human HUVEC cells; format: toxicity, cell-based
# BaF3 [23] = assay: Inhibition of EGFR L858R/T790M/C797S mutant phosphorylation in mouse BaF3 cells assessed as reduction in red fluorescence incubated for 24 hrs by immunofluorescence analysis; format: cell-based
# BaF3 [24] = assay: Inhibition of cell migration in mouse BaF3 cells harboring EGFR L858R/T790M/C797S mutant by transwell assay; format: functional, cell-based
# NCI-H1975 [25] = assay: Induction of apoptosis in human NCI-H1975 cells assessed as early apoptotic cells at 10 nM incubated for 24 hrs by Annexin V-FITC/PI staining based flow cytometry (reference value: 2.18 %); format: functional
# [26] = Toxicity in nude mouse xenografted with human NCI-H1975 cells assessed as body weight loss at 50 mg/kg, po measured for 7 days; format: organism-based; settings: in vivo, 168 h, time 7 day
# NCI-H1975 [27] = assay: Induction of apoptosis in human NCI-H1975 cells assessed as increase in green fluorescence at 10 to 25 nM by TUNNEL method; format: functional, cell-based; settings: dose 10-25 nM
# BaF3 [28] = assay: Antiproliferative activity against mouse BaF3 cells harboring EGFR C797S/L858R/T790M mutant; format: functional, cell-based
# NCI-H1975 [29] = assay: Inhibition of fibronectin activation in human NCI-H1975 cells xenografted in nude mouse at 50 mg/kg, po for 7 days by IHC analysis; format: functional, organism-based; settings: time 7.0 day
# BaF3 [30] = assay: Antitumor activity against mouse BaF3 cells allografted in nude mouse assessed as reduction of tumor volume at 50 mg/kg, po measured after 2 to 7 days; format: functional, organism-based; settings: time 2-7 day
# NCI-H1975 [31] = assay: Inhibition of cell migration in human NCI-H1975 cells at 10 nM incubated for 24 hrs by scratch healing assay relative to control; format: functional
# BaF3 [32] = assay: Inhibition of neovascularization in mouse BaF3 cells allografted in nude mouse at 50 mg/kg, po for 7 days; format: functional, organism-based; settings: time 7.0 day
# [33] = target: T1, Epidermal growth factor receptor; assay: Inhibition of EGFR phosphorylation in human NCI-H1975 cells assessed as reduction in red fluorescence incubated for 24 hrs by immunofluorescence analysis; format: cell-based
# [34] = target: Epidermal growth factor receptor (Homo sapiens, UniProt P00533, C797S/L858R/T790M); assay: Inhibition of EGFR C797S/T790M/L858R mutant (unknown origin)
# [35] = Toxicity in nude mouse allografted with mouse BaF3 cells assessed as damage in spleen at 50 mg/kg, po for 7 days by H and E staining based analysis; format: organism-based; settings: in vivo, 168 h, time 7 day
# BaF3 [36] = assay: Antitumor activity against mouse BaF3 cells allografted in nude mouse assessed as reduction of tumor weight at 50 mg/kg, po measured for 7 days; format: functional, organism-based; settings: time 7.0 day
# [37] = target: Epidermal growth factor receptor (Homo sapiens, UniProt P00533, C797S/EX19DEL/T790M); assay: Inhibition of EGFR C797S/T790M/Del19 mutant (unknown origin)
# [38] = Toxicity in nude mouse allografted with mouse BaF3 cells assessed as animal health at 50 mg/kg, po measured for 7 days; format: organism-based; settings: in vivo, 168 h, time 7 day
# [39] = Toxicity in nude mouse allografted with mouse BaF3 cells assessed as lesion in kidney at 50 mg/kg, po for 7 days by H and E staining based analysis; format: organism-based; settings: in vivo, 168 h, time 7 day
# BaF3 [40] = assay: Antiproliferative activity against mouse BaF3 cells harboring EGFR C797S/Del19/T790M mutant; format: functional, cell-based
# T1 sequence (P00533 whole entry): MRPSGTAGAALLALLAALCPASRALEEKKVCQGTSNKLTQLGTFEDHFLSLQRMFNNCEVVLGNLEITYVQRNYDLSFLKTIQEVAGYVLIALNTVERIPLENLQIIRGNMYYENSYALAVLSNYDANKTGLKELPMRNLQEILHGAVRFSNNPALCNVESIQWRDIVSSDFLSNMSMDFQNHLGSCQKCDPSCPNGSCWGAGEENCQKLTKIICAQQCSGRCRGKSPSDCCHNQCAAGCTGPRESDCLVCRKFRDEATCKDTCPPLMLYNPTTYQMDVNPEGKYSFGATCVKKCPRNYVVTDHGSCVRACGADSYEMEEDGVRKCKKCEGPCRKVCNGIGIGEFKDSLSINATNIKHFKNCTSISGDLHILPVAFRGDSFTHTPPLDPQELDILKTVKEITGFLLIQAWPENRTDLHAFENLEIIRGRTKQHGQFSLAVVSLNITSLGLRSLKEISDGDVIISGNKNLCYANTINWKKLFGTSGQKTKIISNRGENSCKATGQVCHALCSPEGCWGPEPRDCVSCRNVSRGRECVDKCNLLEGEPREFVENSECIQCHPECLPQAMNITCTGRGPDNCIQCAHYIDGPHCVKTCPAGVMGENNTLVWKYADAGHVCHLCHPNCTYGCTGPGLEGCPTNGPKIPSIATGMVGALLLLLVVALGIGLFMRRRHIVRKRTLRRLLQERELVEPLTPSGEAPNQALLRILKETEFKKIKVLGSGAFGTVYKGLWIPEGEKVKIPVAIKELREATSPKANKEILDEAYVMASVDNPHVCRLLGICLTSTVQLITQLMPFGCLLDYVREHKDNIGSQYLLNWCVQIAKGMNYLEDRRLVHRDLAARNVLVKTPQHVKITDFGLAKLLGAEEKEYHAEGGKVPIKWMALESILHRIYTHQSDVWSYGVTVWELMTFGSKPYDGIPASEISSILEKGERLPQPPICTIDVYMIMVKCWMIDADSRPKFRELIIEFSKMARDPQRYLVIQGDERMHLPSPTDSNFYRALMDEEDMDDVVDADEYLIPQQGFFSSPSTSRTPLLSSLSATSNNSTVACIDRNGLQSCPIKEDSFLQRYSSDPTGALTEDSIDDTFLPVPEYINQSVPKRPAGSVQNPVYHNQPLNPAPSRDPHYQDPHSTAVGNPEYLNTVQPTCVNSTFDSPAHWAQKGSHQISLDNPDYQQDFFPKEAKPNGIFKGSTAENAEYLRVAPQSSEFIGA
# Epidermal growth factor receptor (Homo sapiens, UniProt P00533, C797S/EX19DEL/T790M), sequence (P00533 whole entry, looked up, stated change not applied): as the sequence (P00533 whole entry) above
# Epidermal growth factor receptor (Homo sapiens, UniProt P00533, L858R/T790M), sequence (P00533 25-1210 T790M/L858R limits assumed): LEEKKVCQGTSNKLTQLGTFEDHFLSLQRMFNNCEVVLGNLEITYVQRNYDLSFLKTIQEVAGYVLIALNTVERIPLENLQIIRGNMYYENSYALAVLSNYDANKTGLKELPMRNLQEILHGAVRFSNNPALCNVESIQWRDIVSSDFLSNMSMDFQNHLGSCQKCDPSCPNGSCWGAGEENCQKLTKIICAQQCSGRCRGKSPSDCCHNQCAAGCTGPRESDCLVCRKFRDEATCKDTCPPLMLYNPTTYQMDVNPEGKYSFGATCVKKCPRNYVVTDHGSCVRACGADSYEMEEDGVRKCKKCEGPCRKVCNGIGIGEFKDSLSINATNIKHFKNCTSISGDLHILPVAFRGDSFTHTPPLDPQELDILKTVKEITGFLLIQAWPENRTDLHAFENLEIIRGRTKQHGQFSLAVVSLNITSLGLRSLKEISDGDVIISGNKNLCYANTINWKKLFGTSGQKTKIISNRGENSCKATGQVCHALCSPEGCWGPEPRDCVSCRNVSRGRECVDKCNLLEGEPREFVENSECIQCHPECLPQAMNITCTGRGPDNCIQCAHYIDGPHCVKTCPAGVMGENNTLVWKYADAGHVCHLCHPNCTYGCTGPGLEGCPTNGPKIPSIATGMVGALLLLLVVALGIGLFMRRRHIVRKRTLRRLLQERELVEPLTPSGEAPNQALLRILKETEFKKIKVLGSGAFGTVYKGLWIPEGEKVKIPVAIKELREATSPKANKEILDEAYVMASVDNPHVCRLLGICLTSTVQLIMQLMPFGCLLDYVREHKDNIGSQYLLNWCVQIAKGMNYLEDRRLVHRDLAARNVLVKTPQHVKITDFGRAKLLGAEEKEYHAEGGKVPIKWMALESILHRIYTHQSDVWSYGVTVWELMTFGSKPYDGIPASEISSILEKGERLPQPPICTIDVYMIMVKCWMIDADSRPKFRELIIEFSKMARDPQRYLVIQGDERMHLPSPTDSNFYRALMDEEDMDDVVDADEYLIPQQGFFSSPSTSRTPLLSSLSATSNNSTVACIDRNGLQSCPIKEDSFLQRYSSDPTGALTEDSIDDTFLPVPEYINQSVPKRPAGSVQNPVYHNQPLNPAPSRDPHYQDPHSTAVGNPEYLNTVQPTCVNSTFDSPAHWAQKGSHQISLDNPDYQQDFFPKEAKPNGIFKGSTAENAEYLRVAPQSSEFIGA
# Epidermal growth factor receptor (Homo sapiens, UniProt P00533, C797S/L858R/T790M), sequence (P00533 25-1210 T790M/C797S/L858R limits assumed): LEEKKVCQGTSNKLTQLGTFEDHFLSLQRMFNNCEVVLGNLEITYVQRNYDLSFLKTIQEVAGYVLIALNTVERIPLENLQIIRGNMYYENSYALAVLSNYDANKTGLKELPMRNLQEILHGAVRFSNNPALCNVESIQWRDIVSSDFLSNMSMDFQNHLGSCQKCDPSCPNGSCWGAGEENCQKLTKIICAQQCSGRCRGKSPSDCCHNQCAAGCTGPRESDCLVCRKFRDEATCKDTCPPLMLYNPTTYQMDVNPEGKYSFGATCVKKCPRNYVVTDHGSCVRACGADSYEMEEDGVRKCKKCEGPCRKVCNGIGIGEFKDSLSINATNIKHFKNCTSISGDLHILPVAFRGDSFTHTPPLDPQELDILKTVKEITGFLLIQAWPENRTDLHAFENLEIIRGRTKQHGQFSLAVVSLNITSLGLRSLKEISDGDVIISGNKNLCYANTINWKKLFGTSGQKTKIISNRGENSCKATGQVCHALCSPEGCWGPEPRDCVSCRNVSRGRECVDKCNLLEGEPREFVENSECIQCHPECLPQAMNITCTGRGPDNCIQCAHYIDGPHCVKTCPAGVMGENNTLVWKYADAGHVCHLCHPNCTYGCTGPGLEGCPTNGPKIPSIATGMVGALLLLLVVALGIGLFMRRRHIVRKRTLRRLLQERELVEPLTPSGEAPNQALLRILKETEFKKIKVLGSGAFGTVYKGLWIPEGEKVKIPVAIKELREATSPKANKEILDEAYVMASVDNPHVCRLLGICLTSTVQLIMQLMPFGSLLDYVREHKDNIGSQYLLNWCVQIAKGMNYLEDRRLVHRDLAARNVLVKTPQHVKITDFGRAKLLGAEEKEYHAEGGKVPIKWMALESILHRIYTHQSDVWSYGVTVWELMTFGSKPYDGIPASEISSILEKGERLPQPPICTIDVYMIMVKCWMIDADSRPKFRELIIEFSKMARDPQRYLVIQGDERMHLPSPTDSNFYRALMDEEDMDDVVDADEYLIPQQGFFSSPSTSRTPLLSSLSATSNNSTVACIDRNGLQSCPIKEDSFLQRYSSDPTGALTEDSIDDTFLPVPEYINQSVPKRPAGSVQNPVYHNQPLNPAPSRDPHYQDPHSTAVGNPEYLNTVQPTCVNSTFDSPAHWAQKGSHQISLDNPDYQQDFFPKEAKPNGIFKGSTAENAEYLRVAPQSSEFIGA
structure (smiles),measurement,setting,value
CN1CCCN(c2ccc(Nc3ncc(Br)c(Nc4ccccc4NS(=O)(=O)C4CC4)n3)cc2)CC1,inhibition,NCI-H1975 [1],Active
same,IC50,[2],4.76 nM
same,IC50,[3],2780 nM
same,Activity,BaF3 [4],Active
same,Activity,NCI-H1975 [5],6.42%
same,Activity,[6],Non-Toxic
same,inhibition,BaF3 [7],Active
same,Activity,BaF3 [8],69.42%
same,inhibition in vivo at 50 mg/kg,NCI-H1975 [9],83.5%
same,Activity,NCI-H1975 [10],2.98%
same,inhibition,BaF3 [11],Active
same,inhibition,NCI-H1975 [12],Active
same,inhibition,BaF3 [13],Dose-Dependent Effect
same,inhibition,BaF3 [14],Dose-Dependent Effect
same,inhibition,BaF3 [15],Active
same,Activity,BaF3 [16],Active
same,Activity,[17],Non-Toxic
same,Activity,[18],Non-Toxic
same,IC50,[19],5410 nM
same,inhibition,[20],Dose-Dependent Effect
same,Activity,[21],Non-Toxic
same,IC50,[22],2520 nM
same,inhibition,BaF3 [23],Active
same,inhibition,BaF3 [24],Active
same,Activity,NCI-H1975 [25],13.31%
same,Activity,[26],Non-Toxic
same,Activity,NCI-H1975 [27],Active
same,IC50,BaF3 [28],4 nM
same,inhibition,NCI-H1975 [29],Active
same,Activity,BaF3 [30],Active
same,inhibition at 0.01 µM,NCI-H1975 [31],92%
same,inhibition,BaF3 [32],Active
same,inhibition,[33],Active
same,IC50,[34],0.61 nM
same,Activity,[35],Non-Toxic
same,Activity,BaF3 [36],Active
same,IC50,[37],0.42 nM
same,Activity,[38],Non-Toxic
same,Activity,[39],Non-Toxic
same,IC50,BaF3 [40],3 nM
